Literature values as cited in US20140004176A1, “DELIVERY OF TREATMENTS TRANSDERMALLY FOR FUNGAL INFECTIONS AND OTHER INDICATIONS” (Strategic Science & Techologies, priority 2010, published 2014).

C[C@@H](c1ncncc1F)[C@](O)(Cn1cncn1)c1ccc(F)cc1F [voriconazole]
pKa: 1.76
